How the values were obtained:
ERK2 = target: T1, ERK2 (Homo sapiens, UniProt P28482); assay: ERK2 enzyme activity test (ADP-Glo Kinase Assay); format: biochemical; conditions: ADP-Glo chemiluminescence
T1 construct: purchased R&D 1879-KS-010
Method: The purpose of this experiment is to detect the inhibitory ability of the compounds of the present disclosure on the ERK2 enzyme activity, and to evaluate the in vitro activity of the compounds based on the IC50. The ADP-Glo™ Kinase Assay Kit was used in this experiment. The substrate was phosphorylated under the action of the enzyme and ADP was produced at the same time. The ADP-Glo reagent was added to remove the unreacted ATP in the reaction system, and the ADP produced by the reaction was detected with kinase detection reagent. In the presence of the compound, the inhibition rate of the compound was calculated by measuring the signal value.
Preparation of enzyme and substrate: ERK2 (1879-KS-010, R&D) and substrate (custom peptide, Gill Biochemical) were prepared to 0.75 ng/ml and 1500 μM in a buffer (40 mM Tris, 20 mM MgCl2, 0.1 mg/ml BSA, 50 μM DTT), and then the enzyme solution and the substrate solution were prepared into a mixed solution at a volume ratio of 2:1 for later use. ATP was diluted to 500 μM with buffer. The compound was dissolved in DMSO (dimethyl sulfoxide, Shanghai Titan Scientific Co., Ltd.) to prepare a stock solution with an initial concentration of 20 mM, and then Bravo was used to prepare the compound. Finally, 3 μL of a mixed solution of enzyme and substrate, and 1 μL substrate of different concentrations of the compound (the initial concentration is 50 μM, 4-fold dilution) were added to each well of the 384-well plate, and the plate was incubated at 30° C. for 10 minutes, and finally 1 μL 500 μM ATP solution was added to each well, and the plate was incubated at 30° C. for 2 hours. Then 5 μL of ADP-Glo was added, and the plate was incubated at 30° C. for 40 minutes. Then 10 μL of kinase detection buffer was added, and the plate was incubated at 30° C. for 40 minutes. The 384-well plate was taken out and placed in a microplate reader (BMG labtech, PHERAstar FS), and the chemiluminescence was measured by a microplate reader.
Microsoft Excel, Graphpad Prism 5 was used to process and analyze the data.

[1] = Pharmacokinetics assay in mice; format: in vivo; conditions: female, mouse, po, C57 mice, intragastric, 2 mg/kg, plasma
Method: Mice were used as test animals. The drug concentration in plasma at different time points was determined by LC/MS/MS method after administration of the compounds 1-P2, 2-P2, 4-P2, 6-P2, 9-P2, 10-P2 and 11-P2. The pharmacokinetic behavior of the compounds of the present disclosure was studied and evaluated in mice.
Sixty-three C57 mice (female, equally divided into seven groups) were purchased from Shanghai Jiesijie Laboratory Animal Co., LTD. (Certificate No.: SCXK(Shanghai)2013-0006).
A certain amount of the test compound was weighed, dissolved in 5% of DMSO by volume and 5% of tween 80, followed by the additon of 90% of normal saline to prepare a 0.1 mg/mL colorless, clear and transparent solution.
After an overnight fast, C57 mice were intragastrically administered the test compound at an administration dose of 2 mg/kg and an administration volume of 0.2 ml/10 g.
The mice were intragastrically administered the test compounds. 0.1 ml of blood was taken before the administration and at 0.25, 0.5, 1.0, 2.0, 4.0, 6.0, 8.0, 11.0 and 24.0 hours after the administration. The samples were stored in heparinized tubes, and centrifuged for 10 minutes at 3500 rpm to separate the blood plasma. The plasma samples were stored at −20° C.
The content of the test compound in the plasma of mice after intragastrical administration of the test compound at different concentrations was determined: 25 μL of […] plasma at each time point after the administration was taken, followed by the addition of 50 μL of the internal standard camptothecin solution (100ng/mL) and 200 μL of acetonitrile. The resulting solution was vortex-mixed for 5 minutes, and centrifuged for 10 minutes (4000 rpm). 4 μL of the supernatant was taken from the plasma samples for LC/MS/MS analysis.

T1 sequence (P28482 2-360 limits assumed): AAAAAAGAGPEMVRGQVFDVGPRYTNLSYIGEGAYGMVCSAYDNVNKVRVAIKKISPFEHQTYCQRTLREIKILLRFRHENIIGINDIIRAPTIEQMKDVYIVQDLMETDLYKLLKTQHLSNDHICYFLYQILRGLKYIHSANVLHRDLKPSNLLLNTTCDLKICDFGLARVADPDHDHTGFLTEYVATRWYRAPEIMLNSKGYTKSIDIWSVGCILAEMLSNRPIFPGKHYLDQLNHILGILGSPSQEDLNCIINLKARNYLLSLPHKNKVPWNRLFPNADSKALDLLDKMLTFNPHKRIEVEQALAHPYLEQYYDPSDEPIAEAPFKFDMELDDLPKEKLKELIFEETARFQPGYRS

Molecule COc1cc(F)cc([C@@H](CO)NC(=O)[C@H](C)N2CCc3cc(-c4nc(Nc5ccnn5C)ncc4C)cn3C2=O)c1 [Example 1-P1, (S)-N-((S)-1-(3-Fluoro-5-methoxyphenyl)-2-hydroxyethyl)-2-(6-(5-methyl-2-((1-methyl-1H-pyrazol-5-yl)amino)pyrimidin-4-yl)-1-oxo-3,4-dihydropyrrolo[1,2-c]pyrimidin-2(1H)-yl)propanamide] has an IC50 (ERK2) of 0.811 µM.
COc1cc(F)cc([C@@H](CO)NC(=O)[C@H](C)N2CCc3cc(-c4nc(NC5CCOCC5)ncc4Cl)cn3C2=O)c1 [Example 2-P1, (S)-2-(6-(5-Chloro-2-((tetrahydro-2H-pyran-4-yl)amino)pyrimidin-4-yl)-1-oxo-3,4-dihydropyrrolo[1,2-c]pyrimidin-2(1H)-yl)-N-((S)-1-(3-fluoro-5-methoxyphenyl)-2-hydroxyethyl)propanamide] showed an IC50 (ERK2) of 0.336 µM.
For COc1cc(F)cc([C@@H](CO)NC(=O)[C@H](C)N2CCn3cc(-c4nc(NC5CCOCC5)ncc4Cl)cc3C2=O)c1 [Example 4-P1, (S)-2-(7-(5-Chloro-2-((tetrahydro-2H-pyran-4-yl)amino)pyrimidin-4-yl)-1-oxo-3,4-dihydropyrrolo[1,2-a]pyrazin-2(1H)-yl)-N-((S)-1-(3-fluoro-5-methoxyphenyl)-2-hydroxyethyl)propanamide], the IC50 (ERK2) was 0.819 µM.
Cc1cccc([C@@H](CO)NC(=O)C(C)N2CCn3cc(-c4nc(NC5CCOCC5)ncc4Cl)nc3C2=O)c1 (stereo partly drawn) [Example 5, 2-(2-(5-Chloro-2-((tetrahydro-2H-pyran-4-yl)amino)pyrimidin-4-yl)-8-oxo-5,6-dihydroimidazo[1,2-a]pyrazin-7(8H)-yl)-N-((S)-2-hydroxy-1-(m-tolyl)ethyl)propanamide] gave an IC50 (ERK2) of 0.0036 µM.
In the case of COc1cc(F)cc([C@@H](CO)NC(=O)[C@H](C)N2Cc3cc(-c4nc(NC5CCOCC5)ncc4Cl)cn3C2=O)c1 [Example 6-P1, (S)-2-(6-(5-Chloro-2-((tetrahydro-2H-pyran-4-yl)amino)pyrimidin-4-yl)-3-oxo-1H-pyrrolo[1,2-c]imidazol-2(3H)-yl)-N-((S)-1-(3-fluoro-5-methoxyphenyl)-2-hydroxyethyl)propanamide], the IC50 (ERK2) is reported as 2.54 µM.
Molecule COc1cc(F)cc([C@@H](CO)NC(=O)[C@@H](C)N2Cc3cc(-c4nc(NC5CCOCC5)ncc4Cl)cn3C2=O)c1 [Example 6-P2, (R)-2-(6-(5-Chloro-2-((tetrahydro-2H-pyran-4-yl)amino)pyrimidin-4-yl)-3-oxo-1H-pyrrolo[1,2-c]imidazol-2(3H)-yl)-N-((S)-1-(3-fluoro-5-methoxyphenyl)-2-hydroxyethyl)propanamide] has a Vd/F ([1]; read-out: Apparent distribution volume Vz/F) of 7.74 L/kg, an AUC ([1]; read-out: Area under curve AUC) of 1740 ng·h/mL and a CL/F ([1]; read-out: Clearance CLz/F) of 18.9 mL/min/kg. The half-life ([1]; read-out: Half-life T1/2 (converted)) was 4.74 h, the Cmax ([1]; read-out: Plasma concentration Cmax) was 1310 ng/mL and the MRT ([1]; read-out: Residence time MRT) was 1.39 h. For the same molecule, the IC50 (ERK2) was 0.0075 µM.
COc1cc(F)cc([C@@H](CO)NC(=O)[C@H](C)N2Cc3cc(-c4nc(Nc5ccnn5C)ncc4C)cn3C2=O)c1 [Example 8-P1, (S)-N-((S)-1-(3-Fluoro-5-methoxyphenyl)-2-hydroxyethyl)-2-(6-(5-methyl-2-((1-methyl-1H-pyrazol-5-yl)amino)pyrimidin-4-yl)-3-oxo-1H-pyrrolo[1,2-c]imidazol-2(3H)-yl)propanamide] gave an IC50 (ERK2) of 2.12 µM.
Molecule COc1cc(F)cc([C@@H](CO)NC(=O)[C@@H](C)N2Cc3cc(-c4nc(Nc5ccnn5C)ncc4C)cn3C2=O)c1 [Example 8-P2, (R)-N-((S)-1-(3-Fluoro-5-methoxyphenyl)-2-hydroxyethyl)-2-(6-(5-methyl-2-((1-methyl-1H-pyrazol-5-yl)amino)pyrimidin-4-yl)-3-oxo-1H-pyrrolo[1,2-c]imidazol-2(3H)-yl)propanamide] has an IC50 (ERK2) of 0.026 µM.
Molecule Cc1cccc([C@@H](CO)NC(=O)[C@H](C)N2CCc3cc(-c4nc(NC5CCOCC5)ncc4Cl)cn3C2=O)c1 [Example 11-P1, (S)-2-(6-(5-Chloro-2-((tetrahydro-2H-pyran-4-yl)amino)pyrimidin-4-yl)-1-oxo-3,4-dihydropyrrolo[1,2-c]pyrimidin-2(1H)-yl)-N-((S)-2-hydroxy-1-(m-tolyl)ethyl)propanamide] has an IC50 (ERK2) of 0.075 µM.
For COc1cc(F)cc([C@@H](CO)NC(=O)[C@H](C)N2CCn3cc(-c4nc(Nc5ccnn5C)ncc4C)cc3C2=O)c1 [Example 12-P1, (S)-N-((S)-1-(3-Fluoro-5-methoxyphenyl)-2-hydroxyethyl)-2-(7-(5-methyl-2-((1-methyl-1H-pyrazol-5-yl)amino)pyrimidin-4-yl)-1-oxo-3,4-dihydropyrrolo[1,2-a]pyrazin-2(1H)-yl)propanamide], the IC50 (ERK2) was 0.948 µM.
For COc1cc(F)cc([C@@H](CO)NC(=O)[C@H](C)N2CCn3cc(-c4nc(N[C@@H](C)CO)ncc4Cl)nc3C2=O)c1 [Example 14-P1, (S)-2-(2-(5-Chloro-2-(((S)-1-hydroxypropan-2-yl)amino)pyrimidin-4-yl)-8-oxo-5,6-dihydroimidazo[1,2-a]pyrazin-7(8H)-yl)-N-((S)-1-(3-fluoro-5-methoxyphenyl)-2-hydroxyethyl)propanamide], the IC50 (ERK2) was 1.53 µM.
Work on COc1cc(F)cc([C@@H](CO)NC(=O)[C@@H](C)N2CCn3cc(-c4nc(N[C@@H](C)CO)ncc4Cl)nc3C2=O)c1 [Example 14-P2, (R)-2-(2-(5-Chloro-2-(((S)-1-hydroxypropan-2-yl)amino)pyrimidin-4-yl)-8-oxo-5,6-dihydroimidazo[1,2-a]pyrazin-7(8H)-yl)-N-((S)-1-(3-fluoro-5-methoxyphenyl)-2-hydroxyethyl)propanamide] yielded an IC50 (ERK2) of 0.0049 µM.
Work on COc1cc(F)cc([C@@H](CO)NC(=O)[C@@H](C)N2CCn3cc(-c4nc(N[C@@H](C)CO)ncc4Cl)cc3C2=O)c1 [Example 15, (R)-2-(7-(5-Chloro-2-(((S)-1-hydroxypropan-2-yl)amino)pyrimidin-4-yl)-1-oxo-3,4-dihydropyrrolo[1,2-a]pyrazin-2(1H)-yl)-N-((S)-1-(3-fluoro-5-methoxyphenyl)-2-hydroxyethyl)propanamide] yielded an IC50 (ERK2) of 0.0287 µM.
Work on Cc1cccc([C@@H](CO)NC(=O)[C@@H](C)N2CCn3cc(-c4ccnc(Nc5ccnn5C)n4)cc3C2=O)c1 [Example 18-P2, (R)-N-((S)-2-Hydroxy-1-(m-tolyl)ethyl)-2-(7-(2-((1-methyl-1H-pyrazol-5-yl)amino)pyrimidin-4-yl)-1-oxo-3,4-dihydropyrrolo[1,2-a]pyrazin-2(1H)-yl)propanamide] yielded an IC50 (ERK2) of 0.0055 µM.

From patent US20220204512A1, “SUBSTITUTED FUSED BICYCLIC DERIVATIVE, PREPARATION METHOD THEREFOR, AND APPLICATION THEREOF IN MEDICINES” (Jiangsu Hengrui Medicine Co., Ltd., priority 2019, published 2022)
